Results taken from patent US11878070B2, “Silk-based moisturizer compositions and methods thereof” (Evolved By Nature, Inc., priority 2015, dated 2024).

Experiments:
Type in all cases: physicochemical
[1] = Silk gel formation (days to gelation / time to gel); conditions: 100 mg of vitamin C derivative in 15 mL of 2% silk solution
Excerpt: Samples 1-10 were used to examine the effect of silk to vitamin C ratio on serum gelation. Samples 1-3 with less vitamin C gelled quicker than samples 4 and 5. All other conditions were kept constant. Samples 6-8 with less vitamin C gelled quicker than samples 9 and 10. All other conditions were kept constant. It is concluded that decreasing the ratio of silk to vitamin C (increasing the amount of vitamin C) will lengthen the time to gel creation.
Samples 1, 3, 6, 8, O-1, O-2, O-3, and O-4 were used to examine the effect of temperature treatment on serum gelation time. Samples 1, 6, O-1, and O-2 were identical other than temperature treatment. Samples 3, 8, O-3, and O-4 were identical other than temperature treatment. The two groups differed in silk to vitamin C ratio. Time to serum gelation was directly related to temperature treatment with a higher temperature resulting in quicker serum gelation.
All treatments of silk solution for gel solution were in a conical tube at room temperature unless otherwise stated. […] Temperature affected gel creation time with higher temperatures resulting in quicker gel times. 50° C. treatment gelled in as quick as 2 days, 37° C. treatment gelled in as quick as 3 days, room temperature treatment gelled in 5-8 days and storage in a refrigerator took at least 39 days to gel. The effects of additives on gel creation were dependent on the additive. Vitamin E, Rosemary Oil and Rose Oil all had no effect on gel creation. […] Each also required the presence of vitamin C to gel. Lemon juice from a fresh lemon, pre-squeezed lemon juice from a plastic lemon container and lemon grass oil did affect gel creation. […] Both lemon juice types were able to cause gelation without the presence of vitamin C. This occurred in the same number of days as with vitamin C. The lemongrass oil was able to decrease the number of days to gelation to 2-3 days. Ail additives appeared soluble other than lemongrass oil and rose oil. Rose oil remained in yellow bubbles while the lemongrass oil was partially soluble and formed an albumen like chunk. […]

[2] = Dissolution of vitamin C derivative in aqueous silk solution
Excerpt: Ascorbyl tetraisopalmitate is a highly viscous, oil soluble liquid that might need the help of an emulsifier to possible dissolve in aqueous silk solution.

[3] = HPLC chromatograms of samples comprising vitamin C (degradation products); conditions: after 1 hour at ambient conditions without chemical stabilization
Method: No degradation products were visible.
No degradation products were visible. FIG. 59 is a table summarizing the vitamin C concentration in silk protein fragment-films (2% silk films air dried at RT) of the present disclosure. In FIG. 59 processing conditions included 100° C. extraction for 20 min, RT rinse, LiBr in 60° C. oven for 4-6 hours, FIG. 60 is a table summarizing the stability of vitamin C in chemically stabilized solutions. FIGS. 89A-89B are tables summarizing vitamin C stability in SPF gels without chemical stabilizers as compared to chemically stabilized vitamin C in competitive anti-aging skincare products. […] Without wishing to be bound by theory, it appears there is a relationship between vitamin C concentration, silk concentration, and gelation. An increase in vitamin C at a given concentration of silk will result in a longer time to gelation or inhibit gelation. This may be due to the vitamin C molecule physically blocking interaction between silk protein fragments or cross-linking of silk protein.

Q: Which “time to gel formation” value [1] does the source give for O=C1O[C@H]([C@@H](O)CO)C(O)=C1O[C@H]1O[C@H](CO)[C@@H](O)[C@H](O)[C@H]1O [Ascorbic acid-2-glucoside, Ascorbic Acid-2-Glucoside] here?
A: The value was 3 days.

Q: Which “ability to dissolve or be dispersed in aqueous silk solution” value [2] does the source give for CCCCCCCCC(CCCCCC)C(=O)OC[C@H](OC(=O)C(CCCCCC)CCCCCCCC)[C@H]1OC(=O)C(OC(=O)C(CCCCCC)CCCCCCCC)=C1OC(=O)C(CCCCCC)CCCCCCCC (some centres unmarked) [Ascorbyl tetraisopalmitate, Ascorbyl Tetraisopalmitate] here?
A: Its value is “unable to dissolve or be dispersed”.

Q: Which “time to gel formation” value [1] does the source give for O=C1O[C@H]([C@@H](O)CO)C([O-])=C1OP(=O)([O-])[O-].[Na+].[Na+].[Na+] [Sodium ascorbyl phosphate from Aromantic, Sodium Ascorbyl Phosphate] here?
A: The value was “failed to create a gel”.

Q: With O=C1O[C@H]([C@@H](O)CO)C([O-])=C1OP(=O)([O-])[O-].[Na+].[Na+].[Na+] [Sodium ascorbyl phosphate from DSM, Sodium Ascorbyl Phosphate] as the compound, how does the “time to gel formation” value [1] read?
A: The value was 28 days.

Q: For O=C1O[C@H]([C@@H](O)CO)C(O)=C1O [vitamin C, L-ascorbic acid], which “degradation products (HPLC)” value [3] is on record?
A: The value was “degradation products are visible”.
